Laboratory results as given in PubChem BioAssay (NCI).
“And” between values parts separate entries of the source, which are not always exact repeats. Identical values can stand only once.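 How tested: cells in 96-well plates exposed to compound for 48 hours at five concentrations. GI50 is the concentration that inhibits growth by half. TGI is the concentration that stops growth completely.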

Key:
Experiment in all cases: NCI-60 cell line screen, 48 h
HOP-62 NSCLC = test system: HOP-62 NSCLC
IGROV1 ovarian = test system: IGROV1 ovarian
SN12C renal = test system: SN12C renal
BT-549 breast = test system: BT-549 breast
RPMI-8226 leukemia = test system: RPMI-8226 leukemia
NCI-H522 lung = test system: NCI-H522 lung
HOP-92 NSCLC = test system: HOP-92 NSCLC
LOX IMVI melanoma = test system: LOX IMVI melanoma
HCT-15 colon = test system: HCT-15 colon
OVCAR-8 ovarian = test system: OVCAR-8 ovarian
MDA-MB-435 = test system: MDA-MB-435
CAKI-1 renal = test system: CAKI-1 renal
M14 melanoma = test system: M14 melanoma
SK-MEL-5 melanoma = test system: SK-MEL-5 melanoma
OVCAR-4 ovarian = test system: OVCAR-4 ovarian
SF-295 CNS = test system: SF-295 CNS
RXF 393 renal = test system: RXF 393 renal
UACC-62 melanoma = test system: UACC-62 melanoma
EKVX NSCLC = test system: EKVX NSCLC
MCF7 breast = test system: MCF7 breast
HCT-116 colon = test system: HCT-116 colon
OVCAR-3 ovarian = test system: OVCAR-3 ovarian
A498 renal = test system: A498 renal
UO-31 renal = test system: UO-31 renal
HL-60(TB) leukemia = test system: HL-60(TB) leukemia
SF-539 CNS = test system: SF-539 CNS
MDA-MB-468 breast = test system: MDA-MB-468 breast
COLO 205 colon = test system: COLO 205 colon

CC(C)C[C@H](NC(=O)[C@@H]1CCCCCCCCCCC(=O)N[C@@H](CC(=O)N2CCC[C@@H]2C2CCCC2)C(=O)N1)B(O)O
GI50 (HOP-62 NSCLC): 5.68 nM | TGI (HOP-62 NSCLC): 23 nM | GI50 (IGROV1 ovarian): 4.08 nM | GI50 (SN12C renal): 2.15 nM | TGI (SN12C renal): 5.04 nM and 11.3 nM | GI50 (BT-549 breast): 1.4 nM | TGI (BT-549 breast): 3.05 nM | GI50 (RPMI-8226 leukemia): 3.72 nM | GI50 (NCI-H522 lung): 2.21 nM | TGI (NCI-H522 lung): 5.66 nM | GI50 (HOP-92 NSCLC): 2.23 nM | TGI (HOP-92 NSCLC): 6.22 nM | GI50 (LOX IMVI melanoma): 1.75 nM | TGI (LOX IMVI melanoma): 3.46 nM | GI50 (HCT-15 colon): 119 nM and 224 nM | TGI (HCT-15 colon): 356 nM and 2460 nM | GI50 (OVCAR-8 ovarian): 22.2 nM and 15.7 nM | TGI (OVCAR-8 ovarian): 10200 nM | GI50 (MDA-MB-435): 2.57 nM | TGI (MDA-MB-435): 6.73 nM | GI50 (CAKI-1 renal): 108 nM and 52.6 nM | TGI (CAKI-1 renal): 3350 nM | GI50 (M14 melanoma): 5.5 nM | TGI (M14 melanoma): 75.4 nM and 109 nM | GI50 (SK-MEL-5 melanoma): 1.77 nM | TGI (SK-MEL-5 melanoma): 4.27 nM | GI50 (OVCAR-4 ovarian): 3.65 nM | TGI (OVCAR-4 ovarian): 16.9 nM | GI50 (SF-295 CNS): 3.83 nM | TGI (SF-295 CNS): 14.5 nM | GI50 (RXF 393 renal): 2.53 nM | TGI (RXF 393 renal): 6.28 nM | GI50 (UACC-62 melanoma): 1.77 nM | TGI (UACC-62 melanoma): 3.56 nM | GI50 (EKVX NSCLC): 9.25 nM and 21.7 nM | GI50 (MCF7 breast): 3.7 nM | GI50 (HCT-116 colon): 2.6 nM | GI50 (OVCAR-3 ovarian): 4.07 nM | TGI (OVCAR-3 ovarian): 16.8 nM | GI50 (A498 renal): 21.6 nM and 34.4 nM | TGI (A498 renal): 98.2 nM and 180 nM | GI50 (UO-31 renal): 171 nM and 317 nM | TGI (UO-31 renal): 466 nM and 1800 nM | GI50 (HL-60(TB) leukemia): 3.2 nM | TGI (HL-60(TB) leukemia): 1940 nM | GI50 (SF-539 CNS): 1.8 nM | TGI (SF-539 CNS): 3.47 nM | GI50 (MDA-MB-468 breast): 2.02 nM | TGI (MDA-MB-468 breast): 4.4 nM | GI50 (COLO 205 colon): 4.5 nM
